Experimental data from US20250340552A1, “COMPOUNDS, COMPOSITIONS AND METHODS OF TREATING DISORDERS” (HOTSPOT THERAPEUTICS, INC., priority 2022, published 2025).
Read-outs that look alike come from different tables or passages of the source.

Biological target: T1, Cbl-B (Homo sapiens, UniProt Q13191)
T1 construct: MSD-Based Assay for Degradation of Cbl-B in THP-1 Cells; endogenous in cells; host or cells: THP-1 (title) / Jurkat (protocol text)
Experiment: MSD-based assay for degradation of Cbl-B in THP-1 cells
Assay type: cell-based
Method: MSD-Based Assay for Degradation of Cbl-B in THP-1 Cells
Assay plates were then shaken at 600 rpm for 5 minutes, followed by incubation for 24 hours in the 37° C. TC incubator. […] Cell debris was then spun down at maximum speed (about 3200 g) for 30 min and lysates frozen in the −80° C. fridge. Meanwhile, MSD plates (L15XA-3) were coated overnight at 4° C. with 1 ug/mL capture antibody (Anti-Cbl-B antibody, 246C5a and Mouse mAB, ab54362). […] Blocking buffer was 3% Blocker A (MSD, R93BA-4) in TBST. Plates were washed 3× with 150 ul/well of 1×TBST and sample lysates (70 ul/well) then added, followed by shaking for 1 hr at RT, 600 rpm. […] Plates were again washed 3× with 150 ul/well of 1×TBST, followed by addition of Secondary Detection antibody, SULFO-TAG anti-species antibody (Anti Rabbit Antibody (R32AB-5) MSD, R32AB-1) at a final concentration of 1 ug/ml and 25 uL/well, followed by shaking for 1 hr at RT, 600 rpm. Plates were again washed 3× with 150 ul/well of 1×TBST, followed by addition of 1×MSD reading buffer (MSD, R92TC-2), 150 ul/well, diluted from 4× with water.
Compound Dmax were binned into A through D as follows: A indicates >70%, B indicates 50-70%, C indicates 30-50%, D indicates <30%.

[1] = Cbl-B degradation, Jurkat cells seeded (heading: THP-1 cells), 24 hours incubation, MSD readout
[2] = Cbl-B degradation, Jurkat cells seeded (heading: THP-1 cells), 24 hours incubation, MSD readout, read-out: Dmax

T1 sequence (Q13191 whole entry): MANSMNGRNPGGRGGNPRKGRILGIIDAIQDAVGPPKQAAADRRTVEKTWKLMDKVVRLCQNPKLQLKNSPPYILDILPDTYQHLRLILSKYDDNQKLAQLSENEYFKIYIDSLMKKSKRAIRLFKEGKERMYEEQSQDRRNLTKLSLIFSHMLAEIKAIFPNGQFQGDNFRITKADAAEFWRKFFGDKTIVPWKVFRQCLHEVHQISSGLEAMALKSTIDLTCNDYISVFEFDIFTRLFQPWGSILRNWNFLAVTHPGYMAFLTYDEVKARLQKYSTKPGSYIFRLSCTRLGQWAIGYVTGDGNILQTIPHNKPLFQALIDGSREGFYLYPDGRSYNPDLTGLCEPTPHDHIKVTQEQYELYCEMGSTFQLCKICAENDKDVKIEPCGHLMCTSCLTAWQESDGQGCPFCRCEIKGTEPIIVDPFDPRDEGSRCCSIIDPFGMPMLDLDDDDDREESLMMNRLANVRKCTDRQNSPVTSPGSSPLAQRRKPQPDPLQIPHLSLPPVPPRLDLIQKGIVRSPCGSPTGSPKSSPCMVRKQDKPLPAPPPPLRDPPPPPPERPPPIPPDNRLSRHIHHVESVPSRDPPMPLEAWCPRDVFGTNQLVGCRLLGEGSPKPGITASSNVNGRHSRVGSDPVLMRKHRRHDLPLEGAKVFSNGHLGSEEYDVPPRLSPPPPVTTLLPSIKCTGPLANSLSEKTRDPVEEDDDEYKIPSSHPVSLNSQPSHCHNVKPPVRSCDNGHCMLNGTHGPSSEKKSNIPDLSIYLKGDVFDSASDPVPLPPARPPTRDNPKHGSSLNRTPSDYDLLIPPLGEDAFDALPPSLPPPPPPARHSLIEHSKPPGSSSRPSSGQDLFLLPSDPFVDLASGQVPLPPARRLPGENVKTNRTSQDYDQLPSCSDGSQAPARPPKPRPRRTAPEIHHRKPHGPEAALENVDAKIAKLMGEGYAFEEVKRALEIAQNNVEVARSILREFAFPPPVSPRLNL

| SMILES | DC50 [1] [nM] | Dmax [2] [%] | Dmax (THP-1) [%] |
| --- | --- | --- | --- |
| Cn1cnnc1[C@@H](c1cccc(-n2cc3c(C(F)(F)F)cc(CN4CCC[C@@H](OC5CCN(C(=O)c6ccc(N7CCN(c8ccc9c(c8)CN([C@@H]8CCC(=O)NC8=O)C9=O)CC7)cc6)CC5)C4)cn3c2=O)c1)C1CCC1 (single isomer, unassigned) [Compound 171] | < 30 | 50 to 70 |  |
| Cn1cnnc1[C@@H](c1cccc(-n2cc3c(C(F)(F)F)cc(CN4CCN(CCN5CCC(CN6CCN(c7ccc8c(c7)CN([C@@H]7CCC(=O)NC7=O)C8=O)CC6)CC5)CC4)cn3c2=O)c1)C1CCC1 [Compound 63] | 300 to 1000 | 30 to 50 |  |
| Cn1cnnc1CC1(c2cccc(-n3cc4c(C(F)(F)F)cc(CN5CCN(C(=O)CN6CCC(CN7CCN(c8ccc9c(c8)CN([C@H]8CCC(=O)NC8=O)C9=O)CC7)CC6)CC5)cn4c3=O)c2)COC1 (single isomer, unassigned) [Compound 132] | < 30 | 50 to 70 |  |
| CN(CCO[C@@H]1CCCN(Cc2cc(C(F)(F)F)c3cn(-c4cccc([C@H](c5nncn5C)C5CCC5)c4)c(=O)n3c2)C1)C(=O)c1ccc(N2CCN(c3ccc4c(c3)CN([C@H]3CCC(=O)NC3=O)C4=O)CC2)cc1 [Compound 104] | 30 to 300 |  |  |
| Cn1cnnc1CC1(c2cccc(-n3cc4c(C(F)(F)F)cc(CN5CCC(C(=O)N6CCC(CN7CCN(c8ccc9c(c8)CN(C8CCC(=O)NC8=O)C9=O)CC7)CC6)CC5)cn4c3=O)c2)COC1 (stereo not shown) [Compound 43] | > 10000 |  | < 30 |
| Cn1cnnc1CC1(c2cccc(-n3cc4c(C(F)(F)F)cc(CN5CCC(OCCOCc6ccc(COCCNc7cccc8c7C(=O)N(C7CCC(=O)NC7=O)C8=O)cc6)CC5)cn4c3=O)c2)COC1 (stereo not shown) [Compound 3] | 300 to 1000 | 50 to 70 |  |
| Cn1cnnc1CC1(c2cccc(-n3cc4c(C(F)(F)F)cc(CN5CCN(CCN6CCC(CN7CCN(c8ccc9c(c8)CN([C@H]8CCC(=O)NC8=O)C9=O)CC7)CC6)CC5)cn4c3=O)c2)COC1 [Compound 62] | 30 to 300 | > 70 |  |
| Cn1cnnc1CC1(c2cccc(-n3cc4c(C(F)(F)F)cc(CN5CCC(OCCNc6cccc7c6C(=O)N(C6CCC(=O)NC6=O)C7=O)CC5)cn4c3=O)c2)COC1 (stereo not shown) [Compound 36] | 1000 to 10000 | < 30 |  |
| CO[C@H]1C[C@](c2cccc(-n3cc4c(C(F)(F)F)cc(CN5CCC(OCCOCc6ccc(CN7CCN(c8ccc9c(c8)CN([C@@H]8CCC(=O)NC8=O)C9=O)CC7)cc6)CC5)cn4c3=O)c2)(c2nncn2C)C1 [Compound 221] | 300 to 1000 | 30 to 50 |  |
| Cn1cnnc1[C@@H](c1cccc(-n2cc3c(C(F)(F)F)cc(CN4CCC(OC(=O)N5CCC(CC6CCN(c7ccc8c(c7)CN([C@@H]7CCC(=O)NC7=O)C8=O)CC6)CC5)CC4)cn3c2=O)c1)C1CCC1 (single isomer, unassigned) [Compound 253] | 30 to 300 | 50 to 70 |  |
| Cn1cnnc1[C@@H](c1cccc(-n2cc3c(C(F)(F)F)cc(CN4CCC(OCc5cccc(C(=O)N6CCN(c7ccc8c(c7)CN([C@H]7CCC(=O)NC7=O)C8=O)CC6)c5)CC4)cn3c2=O)c1)C1CCC1 (single isomer, unassigned) [Compound 154] | 300 to 1000 | 30 to 50 |  |
| CO[C@H]1C[C@@](c2cccc(-n3cc4c(C(F)(F)F)cc(CN5CCC(CN(C)C(=O)c6ccc(N7CCN(c8ccc9c(c8)CN([C@H]8CCC(=O)NC8=O)C9=O)CC7)cc6)CC5)cn4c3=O)c2)(c2nncn2C)C1 [Compound 169] | 30 to 300 | 30 to 50 |  |
| Cn1cnnc1[C@@H](c1cccc(-n2cc3c(C(F)(F)F)cc(CN4CCC(CC(=O)N5CCC(CC6CCN(c7ccc8c(c7)CN([C@H]7CCC(=O)NC7=O)C8=O)CC6)CC5)CC4)cn3c2=O)c1)C1CCC1 [Compound 176] | < 30 | > 70 |  |
| Cn1cnnc1CC1(c2cccc(-n3cc4c(C(F)(F)F)cc(CN5CCC(OCc6ccc(N7CCN(c8ccc9c(c8)CN([C@H]8CCC(=O)NC8=O)C9=O)CC7)cc6)CC5)cn4c3=O)c2)COC1 (single isomer, unassigned) [Compound 250] | < 30 | 50 to 70 |  |
| Cn1cnnc1[C@@H](c1cccc(-n2cc3c(C(F)(F)F)cc(CC4CCC[C@@H](OCCOCc5ccc(COCCNc6cccc7c6C(=O)N(C6CCC(=O)NC6=O)C7=O)cc5)C4)cn3c2=O)c1)C1CCC1 (stereo partly shown) [Compound 20] | 300 to 1000 | 50 to 70 |  |
| Cn1cnnc1[C@@H](c1cccc(-n2cc3c(C(F)(F)F)cc(CN4CCC(CC(=O)N5CCC(Cc6ccc(-c7ccc8c(c7)CN([C@H]7CCC(=O)NC7=O)C8=O)cc6)CC5)CC4)cn3c2=O)c1)C1CCC1 [Compound 180] | < 30 |  | > 70 |

| SMILES | DC50 [1] [nM] | Dmax [2] [%] | Dmax (THP-1) [%] |
| --- | --- | --- | --- |
| Cn1cnnc1[C@@H](c1cccc(-n2cc3c(C(F)(F)F)cc(CN4CCN(C(=O)CN5CCC(CN6CCN(c7ccc8c(c7)CN([C@@H]7CCC(=O)NC7=O)C8=O)CC6)CC5)CC4)cn3c2=O)c1)C1CCC1 [Compound 129] | > 10000 | < 30 |  |
| Cn1cnnc1[C@@H](c1cccc(-n2cc3c(C(F)(F)F)cc(CN4CCC(OCc5cccc(CN6CCN(c7ccc8c(c7)CN([C@H]7CCC(=O)NC7=O)C8=O)CC6)c5)CC4)cn3c2=O)c1)C1CCC1 (single isomer, unassigned) [Compound 208] | > 10000 | < 30 |  |
| Cn1cnnc1[C@@H](c1cccc(-n2cc3c(C(F)(F)F)cc(CN4CCC(OCCN5CCC(CN6CCN(c7ccc8c(c7)CN([C@@H]7CCC(=O)NC7=O)C8=O)CC6)CC5)CC4)cn3c2=O)c1)C1COC1 [Compound 57] | 1000 to 10000 | 50 to 70 |  |
| CN(CCN(C)C(=O)c1ccc(C2CCN(c3ccc4c(c3)CN([C@@H]3CCC(=O)NC3=O)C4=O)CC2)cc1)Cc1cc(C(F)(F)F)c2cn(-c3cccc([C@H](c4nncn4C)C4CCC4)c3)c(=O)n2c1 (single isomer, unassigned) [Compound 211] | > 10000 | < 30 |  |
| Cn1cnnc1[C@@H](c1cccc(-n2cc3c(C(F)(F)F)cc(CN4CCC(COCc5ccc(CN6CCN(c7cccc8c7C(=O)N(C7CCC(=O)NC7=O)C8=O)CC6)cc5)CC4)cn3c2=O)c1)C1CCC1 (stereo partly shown) [Compound 28] | > 10000 | < 30 |  |
| Cn1cnnc1[C@@H](c1cccc(-n2cc3c(C(F)(F)F)cc(CN4CCC(CCN5CCC(CC6CCN(c7ccc8c(c7)CN([C@H]7CCC(=O)NC7=O)C8=O)CC6)CC5)CC4)cn3c2=O)c1)C1CCC1 [Compound 164] | < 30 | > 70 |  |
| CO[C@H]1C[C@](c2cccc(-n3cc4c(C(F)(F)F)cc(CN5CCC(OCCN6CCC(CN7CCN(c8ccc9c(c8)CN([C@@H]8CCC(=O)NC8=O)C9=O)CC7)CC6)CC5)cn4c3=O)c2)(c2nncn2C)C1 [Compound 69] | 300 to 1000 | 30 to 50 |  |
| Cn1cnnc1[C@@H](c1cccc(-n2cc3c(C(F)(F)F)cc(CN4CCC[C@@H](OCCc5ccc(CN6CCN(c7ccc8c(c7)CN([C@H]7CCC(=O)NC7=O)C8=O)CC6)cc5)C4)cn3c2=O)c1)C1CCC1 (single isomer, unassigned) [Compound 144] | < 30 | 50 to 70 |  |
| Cn1cnnc1CC1(c2cccc(-n3cc4c(C(F)(F)F)cc(CN5CCC(OCc6ccc(C7CCN(c8ccc9c(c8)CN([C@@H]8CCC(=O)NC8=O)C9=O)CC7)cc6)CC5)cn4c3=O)c2)COC1 (single isomer, unassigned) [Compound 205] | 30 to 300 | 30 to 50 |  |
| Cn1cnnc1CC1(c2cccc(-n3cc4c(C(F)(F)F)cc(CN5CCC[C@@H](OCCN6CCC(CN7CCN(c8ccc9c(c8)CN([C@H]8CCC(=O)NC8=O)C9=O)CC7)CC6)C5)cn4c3=O)c2)COC1 (single isomer, unassigned) [Compound 50] | 30 to 300 | > 70 |  |
| Cn1cnnc1CC1(c2cccc(-n3cc4c(C(F)(F)F)cc(CN5CCC(CC(=O)N6CCC(CC7CCN(c8ccc9c(c8)CN([C@H]8CCC(=O)NC8=O)C9=O)CC7)CC6)CC5)cn4c3=O)c2)COC1 (single isomer, unassigned) [Compound 258] | < 30 |  | > 70 |
| Cn1cnnc1CC1(c2cccc(-n3cc4c(C(F)(F)F)cc(CN5CCC(N6CCN(c7ccc8c(c7)CN(C7CCC(=O)NC7=O)C8=O)CC6)CC5)cn4c3=O)c2)COC1 (stereo not shown) [Compound 39] | > 10000 |  | < 30 |
| CO[C@H]1C[C@@](c2cccc(-n3cc4c(C(F)(F)F)cc(CN5CCC(OCCN6CCC(CN7CCN(c8ccc9c(c8)CN([C@@H]8CCC(=O)NC8=O)C9=O)CC7)CC6)CC5)cn4c3=O)c2)(c2nncn2C)C1 [Compound 73] | 1000 to 10000 | 30 to 50 |  |
| Cn1cnnc1CC1(c2cccc(-n3cc4c(C(F)(F)F)cc(CN5CCC(OCCOCc6ccc(CNc7cccc8c7C(=O)N(C7CCC(=O)NC7=O)C8=O)cc6)CC5)cn4c3=O)c2)COC1 (stereo not shown) [Compound 12] | > 10000 | < 30 |  |
| Cn1cnnc1[C@@H](c1cccc(-n2cc3c(C(F)(F)F)cc(CN4CCC(CCN5CCC(CN6CCN(c7ccc8c(c7)CN([C@H]7CCC(=O)NC7=O)C8=O)CC6)CC5)CC4)cn3c2=O)c1)C1CCC1 (single isomer, unassigned) [Compound 110] | < 30 | > 70 |  |
